Measurements reported in patent US20230117680A1, “CYCLOPHILIN D INHIBITORS AND USES THEREOF” (The Broad Institute, Inc., priority 2019, published 2023).
Entries after “also recorded” stand apart in the source; their conditions may differ.

Columns and labels:
[1] = system: mPTP; assay: inhibition of mPTP in in vitro cell culture; assay type: cell-based; conditions: result in words
Method: As disclosed herein, macrocycle inhibitors of cyclophilin D have been discovered and designed with previously unparalleled specificity. An active site binder displaying weak inhibition (IC50=15 uM) and no selectivity profile was initially optimized to 200 nM. CypD specificity was designed by building into S2 pocket residues. Bi-phenyl para-carboxylates provided the greatest level of potency (<2-30 nM) and selectivity for CypD. Co-crystal structures of these macrocycles bound to CypD were solved, and a dual binding mode was determined between active site and S2 pocket. MD simulations of co-crystal structures were conducted to observe dynamic interactions of carboxylate with S2 pocket. Initial proof of target engagement was determined via inhibition of the mPTP.

[2] = system: mPTP in isolated mice kidney mitochondria; assay: inhibition of mPTP in isolated mitochondria (tolerated Ca2+ pulses before full mPTP opening); conditions: result in words
Method: In isolated mice kidney mitochondria, the maximum number of Ca^2+ pulses that could be tolerated before full mPTP opening was measured (see FIG. 24).

[3] = system: 10 other cyclophilins with reported prolyl isomerase activity; assay: cyclophilin specificity screen: CypD against the other cyclophilins; assay type: biochemical; conditions: result in words
Text: (§1) The selectivity of a compound described herein in inhibiting the activity of a first cyclophilin (e.g., CypD) over a second cyclophilin may be measured by the quotient of the IC50 value of the compound in inhibiting the activity of the second cyclophilin over the IC50 value of the compound in inhibiting the activity of the first cyclophilin. The selectivity of a compound described herein in modulating the activity of a first cyclophilin over a second cyclophilin may also be measured by the quotient of the Kd value of an adduct of the compound and the second cyclophilin over the Kd value of an adduct of the compound and the first cyclophilin (e.g., CypD). […] In certain embodiments, selectivity for inhibiting a first cyclophilin over other cyclophilins is measured by Surface Plasmon Resonance (SPR) assays as disclosed in the Examples.
(§2) Following the synthesis of the indicated library members, in vitro inhibition (IC50) assays of these hits were conducted to obtain IC50 inhibitory data. For the IC50 assays, a chymotrypsin coupled PPIase assay using Suc-AAPF-AMC as the peptide substrate was used, whereby isomerization of a peptide substrate Suc-AAPF-AMC from the cis to trans conformation allowed for proteolysis via excess a-chymotrypsin, releasing the C-terminal coumarin fluorophore.
Subsequently, to determine if the compounds could both access the S2 pocket and display CypD specificity, JOMBtrans and compound 49 were screened against the 10 other cyclophilins with reported prolyl isomerase activity. […] Co-crystal structures of JOMBtrans and 49 were solved with CypD.

[4] = target: CypD (Homo sapiens, UniProt P30405); assay: chymotrypsin coupled PPIase assay (Suc-AAPF-AMC substrate), CypD inhibition; assay type: biochemical
Text: as §1, §2

Sequence of CypD (P30405 30-207): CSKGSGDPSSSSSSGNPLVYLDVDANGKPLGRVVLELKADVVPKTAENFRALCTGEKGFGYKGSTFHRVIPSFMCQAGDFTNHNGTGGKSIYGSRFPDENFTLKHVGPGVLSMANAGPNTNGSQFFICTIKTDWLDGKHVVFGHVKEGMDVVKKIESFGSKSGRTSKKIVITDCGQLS

Row | SMILES | rescue of mPTP in cell culture [1] | number of tolerated Ca2+ pulses before full mPTP opening [2] | specificity / selectivity profile for CypD (in words) [3] | IC50 ([4]; read-out: potency for CypD) [nM] | potency for CypD (in words) ([4]; result in words)
1 | CC(=O)c1ccc(-c2ccc(C[C@@H]3NC(=O)[C@]4(Cc5ccccc5)CCCN(C4)C(=O)/C=C/C(=O)NCC[C@@H](C(=O)NCCOCCN)NC(=O)Cc4ccccc4CNC3=O)cc2)cc1 [A-22] | minimal rescue | extend Ca^2+ loading | – | – | –
2 | NCCOCCNC(=O)[C@@H]1CCNC(=O)/C=C/C(=O)N2CCC[C@](Cc3ccccc3)(C2)C(=O)N[C@@H](Cc2ccc(-c3ccc(CCC(=O)O)cc3)cc2)C(=O)NCc2ccccc2CC(=O)N1 [A-81] | appears to not rescue mPTP | extend Ca^2+ loading | high specificity; also recorded: drastic preference for inhibition of CypD | 2.5 | high potency
